In BindingDB's records for doi:10.1124/jpet.105.086363 (Wyeth, 2005):

Tests used:
D(4) dopamine receptor = target: T1, D(4) dopamine receptor (Homo sapiens, UniProt P21917)
T1 sequence (P21917 whole entry): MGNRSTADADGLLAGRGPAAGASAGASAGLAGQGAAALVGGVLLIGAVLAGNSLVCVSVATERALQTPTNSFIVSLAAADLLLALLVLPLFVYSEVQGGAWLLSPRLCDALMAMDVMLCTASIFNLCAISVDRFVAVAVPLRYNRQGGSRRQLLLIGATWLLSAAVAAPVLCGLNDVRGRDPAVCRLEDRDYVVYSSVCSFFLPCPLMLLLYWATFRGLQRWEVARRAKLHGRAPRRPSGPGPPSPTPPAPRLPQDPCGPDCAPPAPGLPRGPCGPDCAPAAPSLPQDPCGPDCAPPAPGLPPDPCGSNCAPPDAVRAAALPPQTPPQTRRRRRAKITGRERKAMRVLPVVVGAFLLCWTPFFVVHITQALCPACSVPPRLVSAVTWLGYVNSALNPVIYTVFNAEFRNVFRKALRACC

D(2) dopamine receptor = D(2) dopamine receptor (Homo sapiens, UniProt P14416)
[1] = target: T2, 5-hydroxytryptamine receptor 1A (Homo sapiens, UniProt P08908)
T2 sequence (P08908 whole entry): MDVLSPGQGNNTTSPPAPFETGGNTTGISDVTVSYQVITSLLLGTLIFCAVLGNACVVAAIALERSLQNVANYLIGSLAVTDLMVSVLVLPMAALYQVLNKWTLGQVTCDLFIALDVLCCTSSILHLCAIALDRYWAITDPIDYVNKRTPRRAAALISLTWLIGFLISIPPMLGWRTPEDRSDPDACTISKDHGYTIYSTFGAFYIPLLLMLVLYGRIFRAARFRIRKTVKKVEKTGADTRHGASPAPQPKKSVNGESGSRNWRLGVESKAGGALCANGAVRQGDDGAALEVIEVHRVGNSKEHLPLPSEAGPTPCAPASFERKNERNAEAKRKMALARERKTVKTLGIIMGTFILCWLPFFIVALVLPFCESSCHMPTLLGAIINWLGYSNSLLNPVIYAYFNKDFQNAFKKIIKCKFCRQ

D(3) dopamine receptor = D(3) dopamine receptor (Homo sapiens, UniProt P35462)
[2] = target: T3, Alpha-1A adrenergic receptor (Rattus norvegicus, UniProt P43140)
T3 sequence (P43140 whole entry): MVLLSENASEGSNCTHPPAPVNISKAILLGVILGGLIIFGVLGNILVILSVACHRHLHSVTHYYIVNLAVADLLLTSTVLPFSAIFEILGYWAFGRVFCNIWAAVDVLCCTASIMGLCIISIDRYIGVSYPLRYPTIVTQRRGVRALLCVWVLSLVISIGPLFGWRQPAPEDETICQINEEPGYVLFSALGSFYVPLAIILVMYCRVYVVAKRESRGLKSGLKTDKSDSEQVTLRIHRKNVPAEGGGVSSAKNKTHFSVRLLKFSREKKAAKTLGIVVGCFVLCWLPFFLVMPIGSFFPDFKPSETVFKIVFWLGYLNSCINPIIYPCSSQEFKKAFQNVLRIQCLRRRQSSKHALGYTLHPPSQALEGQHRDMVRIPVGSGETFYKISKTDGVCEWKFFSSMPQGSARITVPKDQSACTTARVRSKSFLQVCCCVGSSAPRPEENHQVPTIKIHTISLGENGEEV

Chain of D(3) dopamine receptor (P35462 as listed by the source): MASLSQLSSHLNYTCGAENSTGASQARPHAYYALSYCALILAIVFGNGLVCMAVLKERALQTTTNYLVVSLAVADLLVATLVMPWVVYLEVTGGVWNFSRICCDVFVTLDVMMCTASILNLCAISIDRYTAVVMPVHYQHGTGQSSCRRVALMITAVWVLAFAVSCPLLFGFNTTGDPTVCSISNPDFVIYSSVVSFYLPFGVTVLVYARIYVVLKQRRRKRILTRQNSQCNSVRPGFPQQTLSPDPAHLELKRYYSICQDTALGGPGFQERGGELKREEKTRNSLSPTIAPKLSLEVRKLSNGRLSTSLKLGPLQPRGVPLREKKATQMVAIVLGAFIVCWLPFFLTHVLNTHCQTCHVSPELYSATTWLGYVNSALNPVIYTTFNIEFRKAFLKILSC
Chain of D(2) dopamine receptor (P14416 whole entry): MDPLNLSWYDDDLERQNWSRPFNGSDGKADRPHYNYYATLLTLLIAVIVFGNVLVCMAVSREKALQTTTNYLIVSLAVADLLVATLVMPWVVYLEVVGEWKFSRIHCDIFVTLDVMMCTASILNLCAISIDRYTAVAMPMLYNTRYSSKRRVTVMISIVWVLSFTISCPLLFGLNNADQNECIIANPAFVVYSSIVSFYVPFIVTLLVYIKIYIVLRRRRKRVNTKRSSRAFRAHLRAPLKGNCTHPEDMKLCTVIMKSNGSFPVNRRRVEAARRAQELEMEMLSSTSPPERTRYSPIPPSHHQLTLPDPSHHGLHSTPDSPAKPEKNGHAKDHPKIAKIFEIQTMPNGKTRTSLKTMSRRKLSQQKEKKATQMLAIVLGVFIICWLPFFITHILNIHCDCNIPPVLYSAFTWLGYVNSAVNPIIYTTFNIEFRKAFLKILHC

C[C@H](CN(C(=O)c1ccc(C#N)cc1)c1ccccn1)N1CCN(c2cccc3c2OCCO3)CC1
Ki (D(4) dopamine receptor): 98 nM | Ki (D(2) dopamine receptor): 1550 nM | Ki [1]: 4.5 nM | Ki (D(3) dopamine receptor): 320 nM | Ki [2]: 248 nM
